Data taken from patent US20240238425A1, “HSD17B13 Inhibitors and/or Degraders” (Pfizer Inc., priority 2022, published 2024).
Counter-ions that a name gives are not always drawn.

System: HiBiT-HSD17β13 fusion protein (N-terminal HiBiT-tagged HSD17β13 isoform D) in Huh7 HiBiT-HSD17β13 OE cells
Assay: Whole-cell Huh7-HSD17B13 HiBiT assay (degrader potency and maximal efficacy, luminescence readout)
Format: cell-based, human
Settings: 24 hour incubation, geometric mean, * = geometric mean for all forms tested (parent and salt forms); for DC50: read-out: Huh7_HIBIT-HSD17β13_DC50 GMean DC50; for Huh7_HIBIT-HSD17β13_DC50 GMean Asymptote Maximum: max. concentration 1 μM
Method in brief: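 Luminescence from lytic HiBiT detection tracked residual HiBiT-HSD17β13 (isoform D, N-terminal tag) in a stable Huh7 overexpressing clone after 24 h compound treatment at 37° C, 11 concentrations up to 1 μM final. Percent effect used DMSO (zero) and parental Huh7 (high) wells; four-parameter fit gave 50% degradation; viability checked by CellTiter-Glo.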

In the case of `Cn1c(=O)n(C2CCC(=O)NC2=O)c2ccc(CCCN3C[C@H]4CCN(c5ccc6cn(C7CCC(CNC(=O)c8cc(F)c(O)c(F)c8F)CC7)nc6c5)C[C@H]4C3)cc21.O=CO` (mixture of isomers) [Example 22, N-{[(1r,4r)-4-{6-[(3aR,7aS)-2-(3-{1-[(3RS)-2,6-Dioxopiperidin-3-yl]-3-methyl-2-oxo-2,3-dihydro-1H-benzimidazol-5-yl}propyl)octahydro-5H-pyrrolo[3,4-c]pyridin-5-yl]-2H-indazol-2-yl}cyclohexyl]methyl}-2,3,5-trifluoro-4-hydroxybenzamide, formate salt], the DC50 is reported as 1.6 nM and the “Huh7_HIBIT-HSD17β13_DC50 GMean Asymptote Maximum” value is reported as 77%.
`Cn1c(=O)n(C2CCC(=O)NC2=O)c2ccc(CCCN3C[C@@H]4CCN(c5ccc6cn([C@H]7CC[C@H](CNC(=O)c8cc(F)c(O)c(F)c8F)CC7)nc6c5)C[C@@H]4C3)cc21` (mixture of isomers) [Example 102, N-{[(1r,4r)-4-{6-[(3aS,7aR)-2-(3-{1-[(3RS)-2,6-dioxopiperidin-3-yl]-3-methyl-2-oxo-2,3-dihydro-1H-benzimidazol-5-yl}propyl)octahydro-5H-pyrrolo[3,4-c]pyridin-5-yl]-2H-indazol-2-yl}cyclohexyl]methyl}-2,3,5-trifluoro-4-hydroxybenzamide, formate salt] was tested, and the DC50 was 1.5 nM and the “Huh7_HIBIT-HSD17β13_DC50 GMean Asymptote Maximum” value was 74%.
For `Cn1c(=O)n(C2CCC(=O)NC2=O)c2ccc(CCCN3CCn4c(-c5ccc6cn([C@H]7CC[C@H](CNC(=O)c8cc(F)c(O)c(F)c8F)CC7)nc6c5)cnc4C3)cc21` (mixture of isomers) [Example 31, N-{[(1r,4r)-4-{6-[7-(3-{1-[(3RS)-2,6-dioxopiperidin-3-yl]-3-methyl-2-oxo-2,3-dihydro-1H-benzimidazol-5-yl}propyl)-5,6,7,8-tetrahydroimidazo[1,2-a]pyrazin-3-yl]-2H-indazol-2-yl}cyclohexyl]methyl}-2,3,5-trifluoro-4-hydroxybenzamide, trifluoroacetate salt], the DC50 was 0.99 nM and the “Huh7_HIBIT-HSD17β13_DC50 GMean Asymptote Maximum” value was 85%.
For `Cn1c(=O)n(C2CCC(=O)NC2=O)c2ccc(CCCN3CCN(c4cnc(-c5ccn6cc([C@]78CC[C@](CNC(=O)c9cc(F)c(O)c(F)c9F)(CC7)CC8)nc6c5)cn4)CC3)cc21` (mixture of isomers) [Example 130, N-{[4-(7-{5-[4-(3-{1-[(3RS)-2,6-dioxopiperidin-3-yl]-3-methyl-2-oxo-2,3-dihydro-1H-benzimidazol-5-yl}propyl)piperazin-1-yl]pyrazin-2-yl}imidazo[1,2-a]pyridin-2-yl)bicyclo[2.2.2]octan-1-yl]methyl}-2,3,5-trifluoro-4-hydroxybenzamide, trifluoroacetate salt], the DC50 was 0.5 nM and the “Huh7_HIBIT-HSD17β13_DC50 GMean Asymptote Maximum” value was 83%.
With `Cn1c(=O)n(C2CCC(=O)NC2=O)c2ccc(CCCN3CCc4nc(-c5ccc6cn([C@H]7CC[C@H](CNC(=O)c8cc(F)c(O)c(F)c8F)CC7)nc6c5)sc4C3)cc21` (mixture of isomers) [Example 115, N-{[(1r,4r)-4-{6-[5-(3-{1-[(3RS)-2,6-dioxopiperidin-3-yl]-3-methyl-2-oxo-2,3-dihydro-1H-benzimidazol-5-yl}propyl)-4,5,6,7-tetrahydro[1,3]thiazolo[5,4-c]pyridin-2-yl]-2H-indazol-2-yl}cyclohexyl]methyl}-2,3,5-trifluoro-4-hydroxybenzamide, trifluoroacetate salt] the DC50 was 0.26 nM and the “Huh7_HIBIT-HSD17β13_DC50 GMean Asymptote Maximum” value was 79%.
With `Cn1c(=O)n(C2CCC(=O)NC2=O)c2ccc(CCCN3CCN(c4cnc(-c5ccn6cc([C@]78CC[C@](CNC(=O)c9cc(F)c(O)c(F)c9F)(CC7)CC8)nc6c5)nc4)CC3)cc21` (mixture of isomers) [Example 120, N-{[4-(7-{5-[4-(3-{1-[(3RS)-2,6-dioxopiperidin-3-yl]-3-methyl-2-oxo-2,3-dihydro-1H-benzimidazol-5-yl}propyl)piperazin-1-yl]pyrimidin-2-yl}imidazo[1,2-a]pyridin-2-yl)bicyclo[2.2.2]octan-1-yl]methyl}-2,3,5-trifluoro-4-hydroxybenzamide, trifluoroacetate salt] the DC50 was 0.15 nM and the “Huh7_HIBIT-HSD17β13_DC50 GMean Asymptote Maximum” value was 82%.
For `O=C1CCC(N2Cc3c(OCc4ccc(CN5CCC(CCCOc6ccc(-c7noc([C@]89CC[C@](CNC(=O)c%10cc(F)c(O)c(F)c%10)(CC8)CC9)n7)nn6)CC5)cc4)cccc3C2=O)C(=O)N1` (mixture of isomers) [Example 37, N-({4-[3-(6-{3-[1-({4-[({2-[(3RS)-2,6-dioxopiperidin-3-yl]-1-oxo-2,3-dihydro-1H-isoindol-4-yl}oxy)methyl]phenyl}methyl)piperi-din-4-yl]propoxy}pyridazin-3-yl)-1,2,4-oxadiazol-5-yl]bicyclo[2.2.2]octan-1-yl}methyl)-3,5-difluoro-4-hydroxybenzamide, trifluoroacetate salt], the DC50 was 2 nM and the “Huh7_HIBIT-HSD17β13_DC50 GMean Asymptote Maximum” value was 85%.
In the case of `Cn1c(=O)n(C2CCC(=O)NC2=O)c2ccc(CCCN3CCN(c4cc5cn([C@H]6CC[C@H](CNC(=O)c7cc(F)c(O)c(F)c7F)CC6)nc5cn4)CC3)cc21` (mixture of isomers) [Example 93, N-{[(1r,4r)-4-{5-[4-(3-{1-[(3RS)-2,6-dioxopiperidin-3-yl]-3-methyl-2-oxo-2,3-dihydro-1H-benzimidazol-5-yl}propyl)piperazin-1-yl]-2H-pyrazolo[3,4-c]pyridin-2-yl}cyclohexyl]methyl}-2,3,5-trifluoro-4-hydroxybenzamide, formate salt], the DC50 is reported as 0.69 nM and the “Huh7_HIBIT-HSD17β13_DC50 GMean Asymptote Maximum” value is reported as 83%.
For `Cn1c(=O)n(C2CCC(=O)NC2=O)c2ccc(CCCN3Cc4ccc(-c5ccc6c(C7CC7)n([C@H]7CC[C@H](CNC(=O)c8cc(F)c(O)c(F)c8F)CC7)nc6c5)cc4C3)cc21` (mixture of isomers) [Example 129, N-{[(1r,4r)-4-{3-cyclopropyl-6-[2-(3-{1-[(3RS)-2,6-dioxopiperidin-3-yl]-3-methyl-2-oxo-2,3-dihydro-1H-benzimidazol-5-yl}propyl)-2,3-dihydro-1H-isoindol-5-yl]-2H-indazol-2-yl}cyclohexyl]methyl}-2,3,5-trifluoro-4-hydroxybenzamide, trifluoroacetate salt], the DC50 was 0.42 nM and the “Huh7_HIBIT-HSD17β13_DC50 GMean Asymptote Maximum” value was 83%.
In the case of `Cn1c(=O)n(C2CCC(=O)NC2=O)c2ccc(CCCN3CCN(c4nc(-c5nc([C@]67CC[C@](CNC(=O)c8cc(F)c(O)c(F)c8F)(CC6)CC7)no5)cc(N5CCCC5)n4)CC3)cc21` (mixture of isomers) [Example 127, N-{[4-(5-{2-[4-(3-{1-[(3RS)-2,6-dioxopiperidin-3-yl]-3-methyl-2-oxo-2,3-dihydro-1H-benzimidazol-5-yl}propyl)piperazin-1-yl]-6-(pyrrolidin-1-yl)pyrimidin-4-yl}-1,2,4-oxadiazol-3-yl)bicyclo[2.2.2]octan-1-yl]methyl}-2,3,5-trifluoro-4-hydroxybenzamide, trifluoroacetate salt], the DC50 is reported as 0.37 nM and the “Huh7_HIBIT-HSD17β13_DC50 GMean Asymptote Maximum” value is reported as 79%.
For `Cn1c(=O)n(C2CCC(=O)NC2=O)c2ccc(CCCN3Cc4ccc(-c5ccc6cn(C7CCC(CNC(=O)c8cc(F)c(O)c(F)c8F)CC7)nc6c5)nc4C3)cc21` (racemic) [Example 2, N-{[(1r,4r)-4-{6-[6-(3-{1-[(3RS)-2,6-Dioxopiperidin-3-yl]-3-methyl-2-oxo-2,3-dihydro-1H-benzimidazol-5-yl}propyl)-6,7-dihydro-5H-pyrrolo[3,4-b]pyridin-2-yl]-2H-indazol-2-yl}cyclohexyl]methyl}-2,3,5-trifluoro-4-hydroxybenzamide], the DC50 was 0.16 nM and the “Huh7_HIBIT-HSD17β13_DC50 GMean Asymptote Maximum” value was 83* %.
